These results are taken from ChEMBL document CHEMBL1201862, “PubChem BioAssay data set” (2004).

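Growth conditions: 96-well plates. Treatment: test compound, 48 hours, 5 concentrations. Analysis: linear interpolation between bracketing concentrations; unreached endpoints set to highest concentration. Abbreviation: GI50, concentration required for 50% inhibition of growth.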 Activity calls are given as the source filed them. Cut-off read from the data, not from the text of the source: active = GI50 up to about 1.1 µM and inactive = higher. Some results are limits rather than exact numbers.

Among the test systems are SNB-19; CCRF-CEM; RXF 393; M14; UACC-257; HOP-92; HT-29; SK-OV-3; SK-MEL-28; HCT-116; Malme-3M; ACHN; RPMI-8226; A498; K562; NCI-H23; HL-60; MDA-MB-231; OVCAR-8; NCI/ADR-RES.
Holding throughout (experiment): DTP human tumour cell line panel, 48 h

As to `COc1cc2c(c(OC)c1OC)-c1c(cc3c(c1OC)OCO3)CC(C)C(C)(O)C2OC(=O)c1ccccc1` (configuration not stated), the GI50 in the experiment on SNB-19 is 37.8 µM (inactive); in the experiment on CCRF-CEM, 25.9 µM (inactive); with RXF 393, 27.9 µM (inactive); in the experiment with M14, 34.4 µM (inactive); in the experiment with UACC-257, 44.9 µM (inactive); in the experiment on HOP-92, 12.2 µM (inactive). In addition, the GI50 in the experiment on HT-29 was 25.8 µM (inactive); in the experiment with SK-OV-3, 60.4 µM (inactive); in the experiment with SK-MEL-28, 63.7 µM (inactive); in the experiment with HCT-116, 31.4 µM (inactive); in the experiment on Malme-3M it was 45.5 µM (inactive); with ACHN, 32 µM (inactive). Besides, the GI50 with RPMI-8226 was 22 µM (inactive); in the experiment with A498, 39.8 µM (inactive); with K562, 46.3 µM (inactive); in the experiment with NCI-H23, 45.4 µM (inactive); with HL-60 it was 19.5 µM (inactive); with MDA-MB-231, 20.2 µM (inactive). For the same compound, in the experiment with OVCAR-8, the GI50 is 40.6 µM (inactive).
Consider `Fc1cc(-c2ncc(Cl)cc2Cl)c2cccccc1-2`, for which the GI50 was > 100 µM (inactive) in the experiment on NCI/ADR-RES; > 100 µM (inactive) in the experiment on SNB-19; 92.5 µM (inactive) in the experiment with RXF 393; 82.6 µM (inactive) in the experiment with M14; > 100 µM (inactive) with UACC-257; 76.2 µM (inactive) with HT-29. Moreover, the GI50 with SK-OV-3, in the experiment with HCT-116, in the experiment with Malme-3M, with ACHN, in the experiment with NCI-H23 and in the experiment on MDA-MB-231 was > 100 µM (inactive) in each case. Also, the GI50 in the experiment on OVCAR-8 was > 100 µM (inactive).
With `CCOC(=O)CCC(NC(=O)c1ccc(NC(OC)c2nc3cc(C(F)(F)F)ccc3nc2-c2ccccc2)cc1)C(=O)OCC` (configuration not stated), the GI50 in the experiment on SNB-19 was 14.4 µM (inactive); in the experiment on CCRF-CEM, 2.51 µM (inactive); with RXF 393, 13.9 µM (inactive); with M14, 15.4 µM (inactive); in the experiment on UACC-257, 16.3 µM (inactive); in the experiment on HOP-92, 16 µM (inactive). The GI50 in the experiment on HT-29 is 7.93 µM (inactive); in the experiment with SK-OV-3, 18.1 µM (inactive); in the experiment on SK-MEL-28, 17.3 µM (inactive); in the experiment with HCT-116 it was 2.92 µM (inactive); in the experiment on Malme-3M, 17 µM (inactive); in the experiment on ACHN it was 16.1 µM (inactive). The GI50 in the experiment on RPMI-8226 is 6.41 µM (inactive); in the experiment with A498 it was 17.3 µM (inactive); in the experiment with K562 it was 2.89 µM (inactive); in the experiment with NCI-H23, 16 µM (inactive); in the experiment with HL-60, 2.21 µM (inactive); in the experiment with OVCAR-8, 10.3 µM (inactive).
`CC1C(c2ccc(F)cc2)c2cc3c(cc2OC1N1CCCC1)OCO3` (configuration not stated): the GI50 in the experiment on NCI/ADR-RES is 43.6 µM (inactive); in the experiment on SNB-19, 29.1 µM (inactive); with CCRF-CEM, 30.8 µM (inactive); with M14, 54.2 µM (inactive); with UACC-257, 55.1 µM (inactive); with HOP-92, 15.5 µM (inactive). Also, the GI50 in the experiment with HT-29 is 47.8 µM (inactive); in the experiment on SK-MEL-28, 90.4 µM (inactive); in the experiment on HCT-116 it was 30.6 µM (inactive); in the experiment with ACHN it was 27.7 µM (inactive); in the experiment on RPMI-8226, > 10 µM (inactive); in the experiment with K562 it was 42 µM (inactive). The GI50 with NCI-H23 was 64.9 µM (inactive); in the experiment with OVCAR-8, 55.1 µM (inactive).
As to `Cc1cccc2c1Oc1ncccc1C2NC(=O)CN(C)C` (configuration not stated), the GI50 was > 10 µM (inactive) with NCI/ADR-RES; > 10 µM (inactive) in the experiment with SNB-19; > 10 µM (inactive) in the experiment on CCRF-CEM; > 10 µM (inactive) with M14; > 10 µM (inactive) in the experiment on UACC-257; 3.77 µM (inactive) in the experiment on HOP-92. Further, the GI50 in the experiment with HT-29, in the experiment with SK-OV-3, in the experiment on Malme-3M, in the experiment with ACHN, in the experiment with K562 and with NCI-H23 was > 10 µM (inactive) in each case. The GI50 in the experiment with HL-60 and with OVCAR-8 was > 10 µM (inactive) in each case.
For the compound `CC(C)Cc1ccc(C(C)/C=C2\CCC(CN3CCCCC3)C2=O)cc1` (configuration not stated), the GI50 in the experiment on SNB-19 was 12 µM (inactive); in the experiment on CCRF-CEM, 1.5 µM (inactive); with RXF 393, 2.52 µM (inactive); in the experiment with M14, 6.1 µM (inactive); in the experiment on UACC-257 it was 12.7 µM (inactive); in the experiment with HOP-92, 10.1 µM (inactive). The GI50 with HT-29 was 5.12 µM (inactive); in the experiment on SK-OV-3, 20.5 µM (inactive); in the experiment on SK-MEL-28 it was 3.21 µM (inactive); in the experiment with HCT-116 it was 3.87 µM (inactive); in the experiment with Malme-3M, 16.6 µM (inactive); in the experiment with ACHN it was 6.98 µM (inactive). Besides, the GI50 in the experiment on RPMI-8226 was 0.611 µM (active); with A498, 14.3 µM (inactive); in the experiment on K562, 2.46 µM (inactive); with NCI-H23, 7.29 µM (inactive); in the experiment with HL-60, 1.12 µM (inactive); with MDA-MB-231 it was 4.89 µM (inactive). The GI50 in the experiment on OVCAR-8 is 5.18 µM (inactive).
Turning to `CCCCCCCCCCCC(=O)OCC1OC(n2cc(F)c(=O)[nH]c2=O)C(NC(=O)OCc2ccccc2)C(O)C1O` (configuration not stated), the GI50 with SNB-19 is 28.5 µM (inactive); in the experiment with CCRF-CEM, 17.6 µM (inactive); in the experiment on RXF 393 it was 27.2 µM (inactive); in the experiment with M14, 19.6 µM (inactive); in the experiment on UACC-257, 23.4 µM (inactive); with HOP-92, 22.4 µM (inactive). The GI50 in the experiment on HT-29 was 16.1 µM (inactive); in the experiment with SK-OV-3, 63.7 µM (inactive); in the experiment on SK-MEL-28 it was 19.1 µM (inactive); in the experiment on HCT-116, 16.7 µM (inactive); in the experiment with Malme-3M it was 21 µM (inactive); in the experiment with ACHN, 57.4 µM (inactive). The GI50 was 19.4 µM (inactive) in the experiment on RPMI-8226; 20.1 µM (inactive) in the experiment on A498; 21.7 µM (inactive) with K562; 35.3 µM (inactive) in the experiment on NCI-H23; 20.6 µM (inactive) in the experiment on HL-60; 21.2 µM (inactive) with OVCAR-8.
With `CO/N=C(\C(=O)N(C)n1cnnc1)c1csc(NC(c2ccccc2)(c2ccccc2)c2ccccc2)n1`, the GI50 with NCI/ADR-RES, in the experiment on SNB-19, in the experiment on CCRF-CEM, in the experiment on RXF 393, with M14 and in the experiment on UACC-257 was > 10 µM (inactive) in each case. For the same compound, the GI50 with HOP-92, with HT-29, in the experiment on SK-OV-3, with SK-MEL-28, in the experiment on HCT-116 and in the experiment with Malme-3M was > 10 µM (inactive) throughout. Also, the GI50 in the experiment on ACHN, in the experiment with RPMI-8226, with A498, in the experiment on K562, in the experiment on NCI-H23 and with HL-60 was > 10 µM (inactive) throughout. Moreover, the GI50 in the experiment with OVCAR-8 was > 10 µM (inactive).
On to `[N-]=[N+]=CC(=O)OC1CCOCC1`, for which the GI50 with SNB-19, in the experiment on CCRF-CEM, with RXF 393, in the experiment on UACC-257, in the experiment with HOP-92 and in the experiment with HT-29 was > 100 µM (inactive) throughout. The GI50 in the experiment with SK-OV-3, in the experiment with SK-MEL-28, in the experiment with HCT-116, with Malme-3M, with ACHN and in the experiment on RPMI-8226 was > 100 µM (inactive) in each case. Besides, the GI50 in the experiment on A498, in the experiment on K562, in the experiment with NCI-H23, in the experiment with HL-60 and in the experiment on MDA-MB-231 was > 100 µM (inactive) each time.
With `CCOC(=O)C1=C(OC(OCC)C(CC)[Se]c2ccccc2)CCC1` (configuration not stated), the GI50 with SNB-19 was 42.2 µM (inactive); in the experiment on CCRF-CEM, 11 µM (inactive); with RXF 393, 19.5 µM (inactive); in the experiment with M14, 15.1 µM (inactive); with UACC-257 it was 28 µM (inactive); in the experiment with HOP-92, 19.3 µM (inactive). Further, the GI50 was 25.1 µM (inactive) with HT-29; 92 µM (inactive) with SK-OV-3; 32.3 µM (inactive) in the experiment with SK-MEL-28; 20.4 µM (inactive) in the experiment on HCT-116; 4.58 µM (inactive) in the experiment on Malme-3M; 32.2 µM (inactive) in the experiment on ACHN. Besides, the GI50 with RPMI-8226 is 19.3 µM (inactive); in the experiment on A498 it was 41.2 µM (inactive); in the experiment on K562, 44 µM (inactive); with NCI-H23 it was 12.5 µM (inactive); in the experiment with HL-60, 12.4 µM (inactive); with OVCAR-8, 33.2 µM (inactive).
Turning to `COc1cc2c(cc1OC)[C@]1(O)C(=O)c3ccc4c(c3O[C@@H]1CO2)C[C@H](C(C)(C)O)O4`, the GI50 with SNB-19 is > 100 µM (inactive); in the experiment with CCRF-CEM it was 68.1 µM (inactive); with RXF 393, 8.3 µM (inactive); in the experiment on M14, > 100 µM (inactive); in the experiment with UACC-257 it was 6.95 µM (inactive); with HOP-92, 33.6 µM (inactive). Moreover, the GI50 in the experiment on HT-29 is > 100 µM (inactive); in the experiment on SK-OV-3, > 100 µM (inactive); in the experiment on SK-MEL-28, > 100 µM (inactive); in the experiment with HCT-116, 26.2 µM (inactive); in the experiment with Malme-3M it was 8.89 µM (inactive); in the experiment on ACHN, 15.1 µM (inactive). The GI50 in the experiment on RPMI-8226 was 36.5 µM (inactive); in the experiment on A498, 45.8 µM (inactive); in the experiment on K562, 17.1 µM (inactive); in the experiment with NCI-H23, 2.65 µM (inactive); in the experiment with HL-60, 24.9 µM (inactive); in the experiment with OVCAR-8, 85.3 µM (inactive).

Broadly, the GI50 is the concentration at which growth is held to half of that of the control.
